Non-standard residues stand in square brackets, D forms with d. Residues, ends and D or L forms follow the SMILES beside them. *: point of attachment. Decanoyl = CCCCCCCCCC(=O)*

Experiment [1] addresses T1, Apolipoprotein C-III (P33622) (Mus musculus, UniProt P33622).
T1 construct: incubated with 5% mouse plasma; from tissue; host or cells: mouse plasma (5%)
T1 sequence (P33622 21-99): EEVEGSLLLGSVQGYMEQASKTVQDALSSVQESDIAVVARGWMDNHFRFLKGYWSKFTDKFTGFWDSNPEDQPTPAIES
In words: Mass spectrometry of mouse plasma proteins bound to bead-immobilized peptide. Format: binding. Particulars: intensity bound to L-form / D-form of C10-KR8. On the procedure:
(§1) Dynabeads M-370 amine (2×10^9 beads/mL, 50 μL; Thermo Fisher Scientific) were washed 3 times in sterile PBS (1 mL; GIBCO) and reacted with a bifunctional SM(PEG)4 cross-linker (5 mg/mL in DMSO) containing N-hydroxysuccinimide (NHS) ester and maleimide functional groups. A stable covalent bond between the amino group of beads and the NHS ester of the cross-linker was formed in PBS at pH 7.2 at room temperature for 24 hours with shaking at 80 rpm. The beads were then washed six times with PBS to remove nonreacted cross-linker. Next, peptide C10-KR8 (with a cysteine at the N-terminus) at 5 mg/mL was reacted with the free maleimide group in PBS for 24 hours at room temperature with shaking at 80 rpm. Another round of washing was conducted to remove the nonreacted peptides. Both the L-and D-forms of the peptide were coupled in the same manner. A portion of the beads without peptide coupling was saved as a control.
(§2) For serum binding experiments, the beads were resuspended in 500 μL of PBS; 200-μL aliquots of the coated and control dynabead were incubated with 5% mouse plasma for 18 hours at 37° C. After binding, the beads were washed six times with PBS to remove unbound proteins. Finally, the beads were suspended in 50 μL of PBS for mass spectrophotometric analysis to identify peptide-binding partners.
(§3) The samples were reduced by 10 mM dithiothreitol (DTT) and incubated for 30 minutes at 56° C. and back to room temperature. A final concentration of 50 mM iodoacetamide was added to alkylate free cysteines followed by further incubation for 20 min in the dark. Bound proteins were enzymatically digested by trypsin (4 μL of 0.5 μg/mL) overnight. A 60 […] portion was transferred to a new Eppendorf® tube and dried for 2 hours. The samples were then dissolved in 20 μL of 2% acetonitrile with 0.1% formic acid before being loaded to Q-tip columns (Pepclean, C18 spin column). Column was activated by pipetting in and out (4× times), 10 μL of 70% acetonitrile with 0.1% formic acid, and equilibrating with the same volume of 2% acetonitrile with 0.1% formic acid. Binding of the samples was done by mixing more than 10 × times, followed by washing in the same buffer (2% acetonitrile with 0.1% formic acid). The bound peptides were then eluted with 20 μL of 70% acetonitrile with 0.1% formic acid. Samples were subjected to LC-MS analysis after being suspended in the desired buffer.
(§4) Extracted peptides were resuspended in 2% acetonitrile (ACN) and 0.1% formic acid (FA) and loaded onto trap column Acclaim™ PepMap™ 100 75 μm×2 cm C18 LC Columns (Thermo Scientific) at a flow rate of 4 μL/minute. These were then separated with a Thermo RSLC UltiMate™ 3000 on a Thermo Easy-Spray PepMap™ M RSLC C18 75 μm×50 cm C-18 2 μm column (Thermo Scientific) with a step gradient of 4-25% solvent B (0.1% FA in 80% ACN) from 10 to 37 minutes and 25-45% solvent B for 37-46 minutes at 300 nL/min and 50° C. with a 70 minute total run time. Eluted peptides were analyzed by a Thermo Orbitrap Fusion™ Lumos™ Tribrid™ (Thermo Scientific) mass spectrometer in a data dependent acquisition mode. A survey full scan MS (from m/z 350-1800) was acquired in the orbitrap with a resolution of 120000. The AGC target for MS1 was set as 4×10^5 and the ion filling time set as 100 ms. The most intense ions with charge state 2-6 were isolated in 3 second cycle and fragmented using HCD fragmentation with 40% normalized collision energy and detected at a mass resolution of 30000 at 200 m/z. The AGC target for MS/MS was set as 5×10^4 and ion filling time set 60 ms dynamic exclusion was set for 30 seconds with a 10 ppm mass window. Protein identification was performed by searching MS/MS data against the Swiss-Prot mouse protein database. The search was set up for full tryptic peptides with a maximum of two missed cleavage sites. Acetylation of protein N-terminus and oxidized methionine were included as variable modifications, and carbamidomethylation of cysteine was set as fixed modification. […]

The target of experiment [2] is T2, Apolipoprotein A-II (P09813) (Mus musculus, UniProt P09813).
T2 construct: incubated with 5% mouse plasma; from tissue; host or cells: mouse plasma (5%)
T2 sequence (P09813 19-102): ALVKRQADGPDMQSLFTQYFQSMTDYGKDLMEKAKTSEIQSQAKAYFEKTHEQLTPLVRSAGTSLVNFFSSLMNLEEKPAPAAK
The description is as above. Format: binding. The following applies: intensity bound to L-form / D-form of C10-KR8. On the procedure: as §1, §2, §3, §4

The subject of experiment [3] is S. aureus USA300 LAC. In words: Bacterial membrane permeation (propidium iodide). Format: cell-based. Particulars: 12.5 μM. How it is done:
The experiment was performed as described with minor modifications (Mishra, et al. (2019) Proc. Natl. Acad. Sci., 116:13517-13522). Serially diluted 10×peptides (10 μL each well) were created in 96-well microtiter plates. Propidium iodide (2 μL) at a fixed concentration of 20 μM was added to each well followed by 88 μL of the exponential phase S. aureus USA300 culture (a final OD600˜0.1 in TSB media or PBS). Both daptomycin (98%, TSZChem, MA) and rifamycin (98%, Alfa Aesar, MA) were used as controls. The plate was incubated at 37° C. with continuous shaking at 100 rpm in a FLUOstar® Omega (BMG LABTECH, NC) microplate reader. The samples fluorescence was read at every 5 minutes for 24 cycles with excitation and emission wavelengths of 584 and 620 nm, respectively. Plots were generated using average values from the experiments using GraphPad Prism 7.

Experiment [4] relates to S. aureus USA300 LAC. In words: Catheter-associated murine biofilm model. Format: in vivo, mice. Particulars: single dose 15 mg/kg (250 μg) into and around catheter, day 3. On the procedure: Peptide potency was evaluated in the catheter model as described (Wang, et al. (2014) ACS Chem. Biol., 9:1997-2002; Heim, et al. (2014) Methods Mol. Biol., 1106:183-191). On the day of infection, mice were anesthetized using ketamine/xylazine (100/10 mg/kg). A small incision was made on the left flank region of the mouse, and using small blunt spatula, a pouch was made for catheter insertion. A sterile catheter with a length of 1 cm was inserted into the pouch aseptically. The wound was sealed using wound closure VetBond™ glue. Bacterial inoculum (20 μL with 10^3 CFU) was injected into the lumen of the catheter. Two hours post infection, the peptide was injected at 15 mg/kg (50 μL at each of the five sites in and around the catheter). Mice were allowed full recovery from anesthesia in an oxygen-enriched chamber. Three days after infection, untreated and treated animal groups were CO2 euthanized and the tissue around the catheter was harvested along with the catheter. A bacterial uninfected catheter group was included as a negative control. All the catheters were sonicated at 37 kHz for 15 minutes to release the bacteria in biofilms, and the tissues were homogenized. […] Degree of significance was represented as *p<0.05**p<0.01, ***p<0.001, and NS means no significance (determined by nonparametric, unpaired, Mann-Whitney test).

With `CCCCCCCCCC(=O)N[C@@H](CCCCN)C(=O)N[C@@H](CCCNC(=N)N)C(=O)N[C@H](C(=O)N[C@@H](Cc1c[nH]c2ccccc12)C(=O)N[C@@H](CCC(N)=O)C(=O)N[C@@H](CCCNC(=N)N)C(=O)N[C@H](C(=O)N[C@@H](CCCCN)C(N)=O)[C@@H](C)CC)[C@@H](C)CC` [Peptide C10-KR8] (Decanoyl-KRIWQRIK-NH2), the “L/D Ratio, Apolipoprotein C-III” value in experiment [1] was 3.62. Besides, in experiment [2], the “L/D Ratio, Apolipoprotein A-II” value came out at 0.00147.
For `CCCCCCCCCC(=O)N[C@H](CCCCN)C(=O)N[C@H](CCCNC(=N)N)C(=O)N[C@@H](C(=O)N[C@H](Cc1c[nH]c2ccccc12)C(=O)N[C@H](CCC(N)=O)C(=O)N[C@H](CCCNC(=N)N)C(=O)N[C@@H](C(=O)N[C@H](CCCCN)C(N)=O)[C@H](C)CC)[C@H](C)CC` [Peptide C10-KR8d] (Decanoyl-[dK][dR][dI][dW][dQ][dR][dI][dK]-NH2), in the experiment with S. aureus USA300 LAC [3], the “membrane permeation (propidium iodide fluorescence)” value was “able to permeate the membranes of S. aureus USA300 LAC”. Moreover, the “bacterial burden (CFU) on catheter and surrounding tissue” value in the experiment on S. aureus USA300 LAC [4] is “clear decrease in bacterial burden”.

The record behind these values is patent US20240294572A1, “Antimicrobial Peptides” (priority 2021, published 2024).
